One series relates to M. smegmatis mc^2 155. In words: Minimum inhibitory concentration, broth micro dilution. It counts as cell-based, Mycobacterium smegmatis. Particulars: Mycolicibacterium smegmatis, MC^2155; M. smegmatis growth, 24 h; read-out: MIC50 [μM], bacterial growth.
In series [1] the target is F-ATP synthase of inverted membrane vesicles (IMV) of M. smegmatis. In words: ATP synthesis assay with inverted membrane vesicles. As to conditions: read-out: IC50 [μM], effect on ATP synthesis, IMVs of M. smegmatis.
Sequence of F-ATP synthase of inverted membrane vesicles (IMV) of M. smegmatis (A0R203 whole entry): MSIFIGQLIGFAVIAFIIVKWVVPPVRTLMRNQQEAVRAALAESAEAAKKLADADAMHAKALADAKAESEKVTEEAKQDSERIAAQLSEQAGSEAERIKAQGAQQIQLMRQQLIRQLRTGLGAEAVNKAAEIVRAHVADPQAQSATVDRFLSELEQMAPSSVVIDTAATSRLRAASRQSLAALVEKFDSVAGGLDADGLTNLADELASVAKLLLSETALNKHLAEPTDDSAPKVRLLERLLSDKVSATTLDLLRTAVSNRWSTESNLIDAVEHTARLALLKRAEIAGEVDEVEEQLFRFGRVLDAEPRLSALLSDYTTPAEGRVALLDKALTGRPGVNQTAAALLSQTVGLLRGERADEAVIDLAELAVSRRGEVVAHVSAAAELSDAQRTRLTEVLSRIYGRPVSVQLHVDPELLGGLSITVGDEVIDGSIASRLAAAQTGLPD
Sequence of F-ATP synthase of inverted membrane vesicles (IMV) of M. smegmatis (A0R1Z9 whole entry, further chain): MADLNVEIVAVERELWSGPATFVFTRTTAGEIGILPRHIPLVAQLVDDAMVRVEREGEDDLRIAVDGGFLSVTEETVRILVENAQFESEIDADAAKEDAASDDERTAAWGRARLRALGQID
Sequence of F-ATP synthase of inverted membrane vesicles (IMV) of M. smegmatis (A0R200 whole entry, further chain): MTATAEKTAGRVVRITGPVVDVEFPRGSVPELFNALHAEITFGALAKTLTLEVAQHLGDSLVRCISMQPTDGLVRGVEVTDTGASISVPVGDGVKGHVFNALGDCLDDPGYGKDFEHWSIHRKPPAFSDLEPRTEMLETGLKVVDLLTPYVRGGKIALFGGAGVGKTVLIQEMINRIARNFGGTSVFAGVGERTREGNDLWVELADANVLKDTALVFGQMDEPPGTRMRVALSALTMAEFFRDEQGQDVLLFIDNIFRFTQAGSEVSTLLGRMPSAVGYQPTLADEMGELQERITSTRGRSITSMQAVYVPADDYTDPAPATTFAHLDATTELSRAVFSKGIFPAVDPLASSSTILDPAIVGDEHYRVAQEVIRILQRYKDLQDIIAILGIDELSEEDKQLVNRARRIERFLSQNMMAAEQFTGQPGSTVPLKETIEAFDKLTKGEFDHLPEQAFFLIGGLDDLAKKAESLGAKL
Sequence of F-ATP synthase of inverted membrane vesicles (IMV) of M. smegmatis (A0R201 whole entry, further chain): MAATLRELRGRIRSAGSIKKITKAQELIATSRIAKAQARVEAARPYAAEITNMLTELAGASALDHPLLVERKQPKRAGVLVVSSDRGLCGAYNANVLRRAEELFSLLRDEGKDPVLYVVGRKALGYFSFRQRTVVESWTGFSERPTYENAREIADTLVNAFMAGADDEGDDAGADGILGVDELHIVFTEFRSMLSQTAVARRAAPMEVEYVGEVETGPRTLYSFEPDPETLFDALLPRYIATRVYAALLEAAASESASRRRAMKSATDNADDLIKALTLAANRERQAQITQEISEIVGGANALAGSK
Sequence of F-ATP synthase of inverted membrane vesicles (IMV) of M. smegmatis (A0R202 whole entry, further chain): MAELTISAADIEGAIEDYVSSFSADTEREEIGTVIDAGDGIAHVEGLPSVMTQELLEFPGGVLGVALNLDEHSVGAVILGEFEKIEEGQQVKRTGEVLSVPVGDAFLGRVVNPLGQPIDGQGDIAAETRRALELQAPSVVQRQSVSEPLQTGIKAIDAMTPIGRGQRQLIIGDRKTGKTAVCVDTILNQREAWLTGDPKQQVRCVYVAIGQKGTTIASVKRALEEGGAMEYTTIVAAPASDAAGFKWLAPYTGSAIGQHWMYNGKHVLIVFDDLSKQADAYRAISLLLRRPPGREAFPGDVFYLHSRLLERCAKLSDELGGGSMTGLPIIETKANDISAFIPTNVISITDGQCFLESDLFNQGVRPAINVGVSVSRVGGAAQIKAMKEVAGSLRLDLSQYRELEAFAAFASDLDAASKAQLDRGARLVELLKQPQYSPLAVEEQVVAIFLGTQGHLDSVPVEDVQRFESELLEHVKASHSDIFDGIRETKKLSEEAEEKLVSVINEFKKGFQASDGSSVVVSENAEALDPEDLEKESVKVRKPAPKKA
The next series deals with M. bovis BCG. In words: microbe, parasite or virus in culture. In kind it is cell-based, Mycobacterium bovis. Particulars: for ATP synthesis (luminescence): FIG. 3C; for IC50: Mycobacterium tuberculosis variant bovis BCG, BCG, FIG. 3D.
A further series has as its system IMVs of M. phlei. As to conditions: reported [1], read-out: IC50, ATP synthesis; cited from earlier work.
Series [2] has as its system extracellular oxygen consumption. In words: Oxygen consumption rate. It counts as cell-based.
Series [3] is described as follows: Mouse liver microsome stability. Particulars: for half-life: mouse, liver microsomes. It counts as in vitro ADME. For orientation: Liver microsomes are vesicles of endoplasmic reticulum, rich in cytochrome P450 enzymes.

Values after ≈ are worked out from the molar mass of the structure shown. Where two headings read alike, the source gives them in different places.

A word on the melting point: it is the temperature of the solid-liquid transition. What is called MIC50 is the lowest concentration that inhibits either 50% of growth or 50% of the strains tested, depending on the study. Broadly, the IC50 is the concentration at which inhibition is half-maximal. In turn, `CCNc1cc(C)nc(Nc2ccc(NC(=O)c3cccc(O)c3)cc2)n1` [3OH U Et, N-(4-((4-(ethylamino)-6-methylpyrimidin-2-yl)amino)phenyl)-3-hydroxybenzamide] came in with a melting point of 283 to 285 °C. Further, the MIC50 with M. smegmatis mc^2 155 was 79.6 ± 9.13 µM (≈ 28.9 µg/mL). Besides, the concentration for half-maximal inhibition (IC50) in series [1] came out at 1.16 ± 0.09 µM.
The matching figures for `CCNc1cc(C)nc(Nc2ccc(NC(=O)c3ccc(C)cc3)cc2)n1` [4Me U Et, N-(4-((4-(ethylamino)-6-methylpyrimidin-2-yl)amino)phenyl)-4-methylbenzamide]: 297 to 300 °C, 31.8 ± 7.8 µM (≈ 11.5 µg/mL) and 0.39 ± 0.02 µM.
Compound `CCNc1cc(C)nc(Nc2ccc(NC(=O)c3ccc(OC)cc3)cc2)n1` [4OMe U Et, N-(4-((4-(ethylamino)-6-methylpyrimidin-2-yl)amino)phenyl)-4-methoxybenzamide] came in with a melting point of 285 to 288 °C. The “whole cell ATP synthesis inhibition versus drug free control” value in the series on M. bovis BCG (analog in combination with BDQ, FIG. 6A, 6B) is recorded as “significant increase in the inhibition”. The MIC50 with M. smegmatis mc^2 155 amounted to 17.3 ± 2.26 µM (≈ 6.52 µg/mL). Besides, in series [1], the IC50 was determined as 0.69 ± 0.06 µM.
Regarding `COc1nc2ccc(Br)cc2cc1[C@@H](c1ccccc1)[C@@](O)(CCN(C)C)c1cccc2ccccc12` [BDQ, 1-(6-bromo-2-methoxy-quinolin-3-yl)-4-dimethylamino-2-naphthalen-1-yl-1-phenyl-butan-2-ol], the IC50 in the series on IMVs of M. phlei is 20 to 25 nM; with M. bovis BCG (read-out: IC50 value of BDQ, BDQ alone) it was 42 nM; with M. bovis BCG (read-out: IC50 value of BDQ, in combination with cpd 6), 2.36 nM. Moreover, the “ATP synthesis (luminescence)” value in the series with M. bovis BCG (12.5 nM BDQ in the presence of 37.5 μM of cpd 6) is recorded as 6.5×10^3 RLU; in the series with M. bovis BCG (BDQ alone at 200 nM, drug-free 3.7×10^4 RLU) it was 8×10^3 RLU. Also, in series [2] (BDQ alone), the “concentration inhibiting extracellular oxygen consumption” value was “about 500 nM”. Besides, in series [2] (BDQ in combination with 40 μM of cpd 6), the “concentration needed for similar inhibition of oxygen consumption” value is on record as 50 nm.
Take `Cc1cc(NCCO)nc(Nc2ccc(NC(=O)c3cccc(Br)c3)cc2)n1` [Br EtOH]: the melting point lay in the range of 237 to 241 °C. For the same compound, the MIC50 in the series on M. smegmatis mc^2 155 stood at 19 ± 1.5 µM (≈ 8.41 µg/mL). Besides, the IC50 in series [1] is 0.42 ± 0.03 µM.
For the compound `CCOC(=O)CNc1cc(C)nc(Nc2ccc(NC(=O)c3cccc(Br)c3)cc2)n1` [Br Gly, ethyl (2-((4-(3-bromobenzamido)phenyl)amino)-6-methylpyrimidin-4-yl)glycinate], the melting point was greater than 230 °C. The MIC50 with M. smegmatis mc^2 155 worked out at 15.5 ± 1.52 µM (≈ 7.53 µg/mL). Also, the IC50 in series [1] came to 2.01 ± 0.16 µM.
The matching figures for `CNc1cc(C)nc(Nc2ccc(NC(=O)c3cccc(Br)c3)cc2)n1` [Br Me, 3-bromo-N-(4-((4-methyl-6-(methylamino)pyrimidin-2-yl)amino)phenyl)benzamide]: 301 to 303 °C, 12.4 ± 0.56 µM (≈ 5.11 µg/mL) and 0.39 ± 0.06 µM.
Turning to `CCNc1nc(Nc2ccc(NC(=O)c3cccc(Br)c3)cc2)ncc1C` [Br T Et, 3-bromo-N-(4-((4-(ethylamino)-5-methylpyrimidin-2-yl)amino)phenyl)benzamide], the melting point is greater than 230 °C. Also, in the series with M. smegmatis mc^2 155, the MIC50 was 12.3 ± 0.73 µM (≈ 5.25 µg/mL). Also, the IC50 in series [1] came to 0.62 ± 0.08 µM.
For `CCNc1nc(C)cc(Nc2ccc(NC(=O)c3cccc(Br)c3)cc2)n1` [Br U Et iso (Cpd 6 iso), 3-bromo-N-(4-((2-(ethylamino)-6-methylpyrimidin-4-yl)amino)phenyl)benzamide], in that order: 260 to 264 °C, 20.8 ± 1.9 µM (≈ 8.88 µg/mL) and 0.38 ± 0.03 µM.
Consider `CCNc1ccnc(Nc2ccc(NC(=O)c3cccc(Br)c3)cc2)n1` [Br desMe, 3-bromo-N-(4-((4-(ethylamino)pyrimidin-2-yl)amino)phenyl)benzamide], for which the melting point is 229 to 231 °C. For the same compound, in the series on M. smegmatis mc^2 155, the MIC50 is 16.8 ± 2.6 µM (≈ 6.93 µg/mL). For the same compound, the 50% inhibitory concentration (IC50) in series [1] came out at 1.03 ± 0.25 µM.
For `Cc1cc(NC(C)C)nc(Nc2ccc(NC(=O)c3cccc(Br)c3)cc2)n1` [Br iso, 3-bromo-N-(4-((4-(isopropylamino)-6-methylpyrimidin-2-yl)amino)phenyl)benzamide], in that order: 183 to 185 °C, 50.1 ± 4.5 µM (≈ 22.1 µg/mL) and 2.69 ± 0.21 µM.
One may read the microsomal CLint as the capacity of the preparation to metabolise the compound, expressed as a volume cleared per time. High values mean faster metabolism, low ones greater metabolic stability. `CCNc1cc(C)nc(Nc2ccc(NC(=O)c3cccc(Br)c3)cc2)n1` [Cpd 6, 3-bromo-N-(4-((4-(ethylamino)-6-methylpyrimidin-2-yl)amino)phenyl)benzamide] yielded a microsomal CLint in series [3] (mouse liver microsomes) of 14.6 µL/min/mg. Further, the half-life in series [3] (read-out: T½) came out at 47.5 min; in series [3] (without NADPH, read-out: T½ w/o NADPH), 68 min.
Take `CCNc1nc(Nc2ccc(NC(=O)c3cccc(F)c3)cc2)ncc1C` [F T Et, N-(4-((4-(ethylamino)-5-methylpyrimidin-2-yl)amino)phenyl)-3-fluorobenzamide]: in the series on M. smegmatis mc^2 155, the MIC50 is 43.5 ± 3.57 µM (≈ 15.9 µg/mL). For the same compound, the IC50 in series [1] was 0.92 ± 0.04 µM.
Consider `CCNc1cc(C)nc(Nc2ccc(NC(=O)c3cccc(F)c3)cc2)n1` [F U Et, N-(4-((4-(ethylamino)-6-methylpyrimidin-2-yl)amino)phenyl)-3-fluorobenzamide], for which the melting point lay in the range of 259 to 263 °C. The MIC50 with M. smegmatis mc^2 155 came to 18.7 ± 1.25 µM (≈ 6.84 µg/mL). Besides, the IC50 in series [1] was found to be 0.26 ± 0.05 µM.
Compound `CCNc1nc(Nc2ccc(NC(=O)c3ccccc3)cc2)ncc1C` [H T Et, N-(4-((4-(ethylamino)-5-methylpyrimidin-2-yl)amino)phenyl)benzamide] displayed a melting point greater than 230 °C. Moreover, the MIC50 with M. smegmatis mc^2 155 stood at 39 ± 1.91 µM (≈ 13.5 µg/mL). Moreover, the IC50 in series [1] came out at 0.9 ± 0.06 µM.
The matching figures for `CCNc1cc(C)nc(Nc2ccc(NC(=O)c3ccccc3)cc2)n1` [H U Et, N-(4-((4-(ethylamino)-6-methylpyrimidin-2-yl)amino)phenyl)benzamide]: 225 to 226 °C, 26.9 ± 1.39 µM (≈ 9.36 µg/mL) and 1.65 ± 0.16 µM.
Take `CCc1nc2ccc(Cl)cn2c1C(=O)NCc1ccc(N2CCC(c3ccc(OC(F)(F)F)cc3)CC2)cc1` [Q203, 6-chloro-2-ethyl-N-[[4-[4-[4-(trifluoromethoxy)phenyl]piperidin-1-yl]phenyl]methyl]imidazo[1,2-a]pyridine-3-carboxamide]: the “effect of Q203 in the presence of cpd 6” value in the series with M. bovis BCG (ATP synthesis, FIG. 3E) is listed as “additive effect”. Further, in series [2] (Q203 in combination with 40 μM of cpd 6), the “concentration for complete inhibition of oxygen consumption” value stood at 100 nM.

The values are drawn from patent publication US11078165B2 (priority 2017, dated 2021).
